In one series the target is T1, MAO-A (Homo sapiens, UniProt P21397).
T1 sequence (P21397 whole entry): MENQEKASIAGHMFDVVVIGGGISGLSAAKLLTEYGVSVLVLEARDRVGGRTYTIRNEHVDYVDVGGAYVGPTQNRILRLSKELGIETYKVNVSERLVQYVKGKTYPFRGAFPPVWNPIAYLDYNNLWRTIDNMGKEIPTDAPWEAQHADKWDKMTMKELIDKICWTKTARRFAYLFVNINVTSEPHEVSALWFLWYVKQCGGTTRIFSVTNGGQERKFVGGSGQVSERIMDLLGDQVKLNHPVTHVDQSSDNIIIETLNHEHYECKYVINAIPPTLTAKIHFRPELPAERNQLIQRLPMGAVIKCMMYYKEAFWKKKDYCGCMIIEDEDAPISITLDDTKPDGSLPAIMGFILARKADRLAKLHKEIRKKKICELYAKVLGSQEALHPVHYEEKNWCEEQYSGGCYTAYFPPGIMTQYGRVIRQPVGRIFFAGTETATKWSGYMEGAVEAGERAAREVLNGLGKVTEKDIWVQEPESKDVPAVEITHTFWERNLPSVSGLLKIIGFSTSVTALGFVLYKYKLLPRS
Briefly: Inhibition of N-terminal FLAG-tagged recombinant human MAO-A expressed in baculovirus-infected Sf9 cells at 5 uM using luciferin derivative as substrate pretreated for 15 mins followed by substrate addition and incubated for 60 mins by luciferase assay relative to control. Particulars: probe luciferin derivative, time 75 min.

Another series concerns the target T2, MAO-B (Homo sapiens, UniProt P27338).
T2 sequence (P27338 whole entry): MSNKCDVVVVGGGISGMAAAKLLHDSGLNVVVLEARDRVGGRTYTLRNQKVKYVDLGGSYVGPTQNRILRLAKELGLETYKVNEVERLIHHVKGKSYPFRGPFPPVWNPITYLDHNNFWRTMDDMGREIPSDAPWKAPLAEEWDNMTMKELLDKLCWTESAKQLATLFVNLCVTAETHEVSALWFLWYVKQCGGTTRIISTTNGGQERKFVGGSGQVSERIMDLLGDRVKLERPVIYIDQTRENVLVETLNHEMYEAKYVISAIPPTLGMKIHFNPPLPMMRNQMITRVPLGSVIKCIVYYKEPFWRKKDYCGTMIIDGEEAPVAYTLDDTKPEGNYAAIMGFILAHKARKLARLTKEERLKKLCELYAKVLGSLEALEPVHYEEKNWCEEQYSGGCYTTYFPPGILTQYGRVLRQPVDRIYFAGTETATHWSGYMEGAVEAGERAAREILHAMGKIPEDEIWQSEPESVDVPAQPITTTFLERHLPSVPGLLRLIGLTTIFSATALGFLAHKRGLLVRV
Description: Inhibition of N-terminal FLAG-tagged recombinant human MAO-B expressed in baculovirus-infected Sf9 cells at 5 uM using luciferin derivative as substrate pretreated for 15 mins followed by substrate addition and incubated for 60 mins by luciferase assay relative to control. Particulars: probe luciferin derivative, time 75 min.

The target in series [1] is Cyclin-dependent kinase 1 (Homo sapiens) (UniProt P06493). Description: Inhibition of CDK1 (unknown origin) at 5 uM using 5-FAM-QSPKKG-CONH2 as a substrate incubated for 60 mins in the presence of ATP by caliper analysis relative to control.
The target of series [2] is Glycogen synthase kinase-3 beta (Homo sapiens) (UniProt P49841). Description: Inhibition of GSK-3beta (unknown origin) at 5 uM relative to control.
Series [3] deals with Epidermal growth factor receptor (Homo sapiens, UniProt P00533). Description: Inhibition of EGFR (unknown origin).
The species entered for a further series is Homo sapiens. Description: Selectivity index, ratio of IC50 for inhibition of EGFR (unknown origin) to IC50 for inhibition of recombinant human full length LSD1 transfected in Escherichia coli BL21 (DE).
Series [4] has as its system MGC-803. Description: Inhibition of clonogenicity in human MGC-803 cells assessed as reduction in colony formation at 10 uM measured after 10 days by crystal violet staining based analysis relative to control. The format is functional. Conditions: MGC-803, 240 h, time 10 day.
In series [5] the test system is MGC-803. Description: Inhibition of cell migration in human MGC-803 cells at 0.5 uM measured after 48 hrs by transwell assay relative to control. The format is functional.
The subject of series [6] is MGC-803. Briefly: Inhibition of epithelial mesenchymal transition process in human MGC-803 cells assessed as increase in E-cadherin expression at 0.1 to 0.5 uM measured after 24 hrs western blot analysis. The format is functional, cell-based. Particulars: dose 0.1-0.5 µM. For orientation: Immunoblotting shows a protein as a band on a membrane.
For series [7], the system named is MGC-803. Description: Induction of apoptosis in human MGC-803 cells assessed as necrotic cells at 5 uM measured after 24 hrs by Annexin V-FITC/PI staining based flow cytometry analysis (Rvb= 1%). The format is functional. (A flow cytometer gives signals particle by particle.)
Series [8] concerns MGC-803. Briefly: Induction of apoptosis in human MGC-803 cells assessed as early apoptotic cells at 10 uM measured after 24 hrs by Annexin V-FITC/PI staining based flow cytometry analysis (Rvb= 6.1%). The format is functional.
The subject of series [9] is MGC-803. Description: Induction of apoptosis in human MGC-803 cells assessed as late apoptotic cells at 10 uM measured after 24 hrs by Annexin V-FITC/PI staining based flow cytometry analysis (Rvb= 3.9%). The format is functional.
Series [10] deals with MGC-803. Description: Induction of apoptosis in human MGC-803 cells assessed as live cells at 20 uM measured after 24 hrs by Annexin V-FITC/PI staining based flow cytometry analysis (Rvb= 89%). The format is functional.
Series [11] has as its system MGC-803. Description: Induction of apoptosis in human MGC-803 cells assessed as early apoptotic cells at 20 uM measured after 24 hrs by Annexin V-FITC/PI staining based flow cytometry analysis (Rvb= 6.1%). The format is functional.
Series [12] deals with MGC-803. Description: Antitumor activity against human MGC-803 cells xenografted in nude mouse assessed as reduction in tumor weight at 80 mg/kg/day, iv administered for 21 days relative to control. The format is functional. Particulars: MGC-803, iv, 504 h, time 21 day. (In general: A xenograft is tissue or cells of one species grown in another, often human tumour cells in immunodeficient mice.)

Series [13] concerns MGC-803. Description: Antitumor activity against human MGC-803 cells xenografted in nude mouse assessed as low cell density in tumor tissue at 40 to 80 mg/kg/day, iv measured after 21 days by H and E staining based histopathological analysis. The format is functional, organism-based. Particulars: dose 40-80 mg/kg/day, time 21.0 day.
Series [14] in a line: Ocular toxicity in nude mouse xenografted with human MGC-803 cells at 40 to 80 mg/kg/day, iv administered for 21 days. Conditions: in vivo, 504 h, dose 40-80 mg/kg/day, time 21 day. The format is organism-based.
The target in series [15] is Lysine-specific histone demethylase 1A (Homo sapiens, UniProt O60341).
Description: Inhibition of recombinant full length LSD1 (unknown origin) transfected in Escherichia coli BL21 (DE) using H3K4me2 as substrate by flourescence based analysis
The test system of another series is NCI-H1650. Briefly: cells. Particulars: Homo sapiens, NCI-H1650, 72 h.
The subject of the next series is NCI-H1975. Description: cells. Conditions: Homo sapiens, NCI-H1975, 72 h.
A further series has as its system PC-3. Briefly: cells. Conditions: Homo sapiens, PC-3, 72 h.
For the next series, the system named is ECa-109 cell line. Briefly: cells. Particulars: Homo sapiens, ECa-109, 72 h.
In a further series the test system is HepG2. Description: cells. Particulars: Homo sapiens, HepG2, 72 h.
Another series deals with GES1. Description: cells. Particulars: Homo sapiens, GES1, 72 h.

pIC50: −log10 of the molar value. Calls of active or inactive are those of the source. The rule behind the calls is not given here.

By inhibition is commonly meant the change of the read-out against control, counted positive when it falls. Broadly, the pIC50 is the IC50 on a negative log10 scale, so that one unit is a factor of ten. A word on the inhibition in vivo: it is the drop in the measured response relative to a control, in per cent.

Sequence of Epidermal growth factor receptor (P00533 whole entry): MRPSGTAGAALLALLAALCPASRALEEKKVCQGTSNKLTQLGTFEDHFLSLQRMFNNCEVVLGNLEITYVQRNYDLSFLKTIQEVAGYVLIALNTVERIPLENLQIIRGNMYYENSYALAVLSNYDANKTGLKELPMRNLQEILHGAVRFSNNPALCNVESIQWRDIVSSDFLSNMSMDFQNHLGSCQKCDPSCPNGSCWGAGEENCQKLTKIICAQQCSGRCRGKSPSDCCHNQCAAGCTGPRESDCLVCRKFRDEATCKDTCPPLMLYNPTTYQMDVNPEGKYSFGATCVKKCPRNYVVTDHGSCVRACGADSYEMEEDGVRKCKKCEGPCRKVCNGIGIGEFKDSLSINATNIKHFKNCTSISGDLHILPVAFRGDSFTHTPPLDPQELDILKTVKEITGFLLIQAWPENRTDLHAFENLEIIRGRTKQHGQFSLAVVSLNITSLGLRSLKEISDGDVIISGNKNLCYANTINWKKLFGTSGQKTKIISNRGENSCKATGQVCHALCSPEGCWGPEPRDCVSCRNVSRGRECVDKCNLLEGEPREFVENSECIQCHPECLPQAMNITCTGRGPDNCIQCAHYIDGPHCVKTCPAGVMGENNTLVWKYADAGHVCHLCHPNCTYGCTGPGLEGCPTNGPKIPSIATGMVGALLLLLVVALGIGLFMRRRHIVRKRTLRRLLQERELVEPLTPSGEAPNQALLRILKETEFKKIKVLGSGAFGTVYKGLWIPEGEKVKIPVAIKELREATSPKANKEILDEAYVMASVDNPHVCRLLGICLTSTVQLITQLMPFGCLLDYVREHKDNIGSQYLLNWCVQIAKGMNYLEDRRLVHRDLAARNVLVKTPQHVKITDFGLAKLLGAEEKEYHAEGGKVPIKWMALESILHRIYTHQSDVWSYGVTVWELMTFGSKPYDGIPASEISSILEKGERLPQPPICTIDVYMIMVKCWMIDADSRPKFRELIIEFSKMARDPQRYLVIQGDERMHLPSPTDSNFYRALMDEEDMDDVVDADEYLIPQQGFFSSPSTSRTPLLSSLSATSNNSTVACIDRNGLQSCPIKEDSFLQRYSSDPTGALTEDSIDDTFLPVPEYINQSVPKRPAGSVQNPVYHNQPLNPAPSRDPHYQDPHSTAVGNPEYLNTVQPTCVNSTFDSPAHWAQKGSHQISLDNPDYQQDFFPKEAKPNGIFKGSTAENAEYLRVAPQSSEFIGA
Sequence of Cyclin-dependent kinase 1 (Homo sapiens) (P06493 whole entry, looked up): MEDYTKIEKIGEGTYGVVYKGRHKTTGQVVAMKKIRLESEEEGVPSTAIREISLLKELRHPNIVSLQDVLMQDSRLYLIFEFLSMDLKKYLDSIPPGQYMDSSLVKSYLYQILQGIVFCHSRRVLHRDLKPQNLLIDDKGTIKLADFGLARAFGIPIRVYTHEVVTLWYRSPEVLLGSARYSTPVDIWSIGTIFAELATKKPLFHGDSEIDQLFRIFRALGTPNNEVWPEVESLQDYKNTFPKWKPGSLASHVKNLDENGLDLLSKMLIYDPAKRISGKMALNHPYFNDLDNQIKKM
Sequence of Glycogen synthase kinase-3 beta (Homo sapiens) (P49841 whole entry, looked up): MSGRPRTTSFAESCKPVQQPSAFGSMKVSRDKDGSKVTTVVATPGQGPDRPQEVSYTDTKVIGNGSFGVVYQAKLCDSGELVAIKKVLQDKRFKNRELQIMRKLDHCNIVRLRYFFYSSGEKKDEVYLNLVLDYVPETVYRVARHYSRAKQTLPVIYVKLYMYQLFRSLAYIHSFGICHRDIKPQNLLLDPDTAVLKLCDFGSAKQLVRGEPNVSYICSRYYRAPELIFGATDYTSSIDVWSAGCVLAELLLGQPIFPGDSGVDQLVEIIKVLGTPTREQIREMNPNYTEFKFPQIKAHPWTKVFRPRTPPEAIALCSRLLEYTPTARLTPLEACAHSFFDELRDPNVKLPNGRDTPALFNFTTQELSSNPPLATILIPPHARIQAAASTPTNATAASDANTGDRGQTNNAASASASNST
Description for ECa-109 cell line: Antiproliferative activity against human EC109 cells assessed as cell growth inhibition measured after 72 hrs by MTT assay
Description for GES1: Cytotoxicity against human GES1 cells assessed as cell growth inhibition measured after 72 hrs by MTT assay
Description for HepG2: Antiproliferative activity against human HepG2 cells assessed as cell growth inhibition measured after 72 hrs by MTT assay
Description for NCI-H1650: Antiproliferative activity against human NCI-H1650 cells assessed as cell growth inhibition measured after 72 hrs by MTT assay
Description for NCI-H1975: Antiproliferative activity against human NCI-H1975 cells assessed as cell growth inhibition measured after 72 hrs by MTT assay
Description for PC-3: Antiproliferative activity against human PC-3 cells assessed as cell growth inhibition measured after 72 hrs by MTT assay

Take `COCCOc1cc2ncnc(Sc3nc[nH]n3)c2cc1OCCOC`: the results for the inhibition at 1.25 h, 5 µM at MAO-A and at MAO-B were 15% and 18%, respectively. The inhibition in series [1] is less than 2%; in series [2] it was 13%. For the same molecule, the pIC50 in series [3] is 5.28; in series [15], 6.16; with NCI-H1650 it was 4.76; in the series with NCI-H1975 it was 4.58; with PC-3 it was less than 4.30; in the series on ECa-109 cell line, 5.02. The pIC50 with HepG2 was 4.79; with GES1, less than 4.30. The Ratio IC50 in the series filed under Homo sapiens is 7.5. Besides, the inhibition at 10 µM in the series on MGC-803 [4] was greater than 90%. In the series with MGC-803 [5], this molecule showed an inhibition at 0.5 µM of 70%. In addition, in the series on MGC-803 [6], the inhibition entry is “Active”. Moreover, the Activity was 0.4% in the series on MGC-803 [7]; 13.3% in the series on MGC-803 [8]; 29.3% in the series on MGC-803 [9]; 20.6% with MGC-803 [10]; 31.2% with MGC-803 [11]; “Non-Toxic” in series [14]. Besides, the inhibition in vivo at 80 mg/kg/day in the series on MGC-803 [12] came out at 96.1%. Further, in the series on MGC-803 [13], the outcome was Active.

These data come from ChEMBL document CHEMBL4831513, “Discovery of quinazoline derivatives as a novel class of potent and in vivo efficacious LSD1 inhibitors by drug repurposing” (Eur J Med Chem, 2021).
